Here are results for ten compounds from PubChem BioAssay (NCI).

The structures appear in SMILES notation. “And” between values parts separate entries of the source, which are not always exact repeats. Identical values can stand only once.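 Exposure lasted 48 hours, with cells grown in 96-well plates and compounds tested at five concentrations. GI50: concentration for 50% inhibition of growth. At the TGI there is no net growth.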 Some results are limits rather than exact numbers.

Among the test systems are IGROV1 ovarian; HCT-116 colon; NCI-H23 lung; A498 renal; OVCAR-8 ovarian; SF-539 CNS; SW-620 colon; OVCAR-4 ovarian; K-562 leukemia; SF-295 CNS.
Holding throughout (assay): NCI tumour cell line growth inhibition, 48 h

As for `O=C(Nc1ccc(-n2cc(-c3ccncc3)c(-c3ccc(Cl)c(O)c3)n2)cc1)c1cc(C(F)(F)F)cc(C(F)(F)F)c1`, the GI50 with IGROV1 ovarian is 11.5 µM; with HCT-116 colon it was 4.72 µM; in the experiment with NCI-H23 lung, 6.09 µM; in the experiment with A498 renal, 14.8 µM; in the experiment on OVCAR-8 ovarian, 6.54 µM; in the experiment with SF-539 CNS it was 2.95 µM. The GI50 in the experiment with SW-620 colon is 5.4 µM; in the experiment with OVCAR-4 ovarian, 11.2 µM; in the experiment on K-562 leukemia it was 4.97 µM; in the experiment on SF-295 CNS, 3.31 µM. Besides, the TGI in the experiment with IGROV1 ovarian turned out to be 34.5 µM; in the experiment with HCT-116 colon it was 17.5 µM; in the experiment on NCI-H23 lung, 29.5 µM; with A498 renal, 35 µM; in the experiment with OVCAR-8 ovarian it was 34.8 µM; in the experiment with SF-539 CNS, 13.8 µM. The TGI in the experiment with SW-620 colon is 35.6 µM; in the experiment with OVCAR-4 ovarian it was 54.6 µM; with K-562 leukemia it was 88 µM; with SF-295 CNS, 18.1 µM.
Take `Cc1ccc(C(=O)Nc2ccc(Oc3cc4cnn(C)c4cc3-c3cn[nH]c3)c(F)c2)c(=O)n1-c1ccc(F)cc1`: the GI50 in the experiment on IGROV1 ovarian is > 100 µM; in the experiment with HCT-116 colon, 6.31 µM; with NCI-H23 lung, 8.97 µM; in the experiment with A498 renal, 0.404 µM; with OVCAR-8 ovarian it was 48.8 µM; in the experiment with SF-539 CNS it was 1.37 µM. The GI50 was > 88.9 µM in the experiment on SW-620 colon, > 100 µM with OVCAR-4 ovarian, 5.75 µM in the experiment on K-562 leukemia and 0.0856 µM in the experiment on SF-295 CNS. Besides, the TGI with IGROV1 ovarian, with HCT-116 colon, in the experiment with NCI-H23 lung, with A498 renal, with OVCAR-8 ovarian and in the experiment with SF-539 CNS was > 100 µM throughout. Moreover, the TGI in the experiment with SW-620 colon, in the experiment on OVCAR-4 ovarian, with K-562 leukemia and in the experiment on SF-295 CNS was > 100 µM throughout.
As to `O=[N+]([O-])c1cccnc1S(=O)(=O)c1ccccc1`, the TGI in the experiment with IGROV1 ovarian turned out to be 20.3 µM; in the experiment with HCT-116 colon it was 21.6 µM; in the experiment with NCI-H23 lung, 30.3 µM; in the experiment on A498 renal, 36.6 µM; in the experiment with OVCAR-8 ovarian, 26.8 µM; with SF-539 CNS it was 24 µM. Moreover, the TGI is 8.38 µM in the experiment with SW-620 colon, 17.1 µM in the experiment with OVCAR-4 ovarian, > 43.8 µM with K-562 leukemia and 32.5 µM in the experiment with SF-295 CNS.
For `COC(=O)C1CCC(C)CC1=O` (centres undefined), the TGI in the experiment with IGROV1 ovarian, with HCT-116 colon, in the experiment on NCI-H23 lung, with A498 renal, in the experiment on OVCAR-8 ovarian and with SF-539 CNS was > 100 µM each time. Besides, the TGI in the experiment with SW-620 colon, in the experiment on OVCAR-4 ovarian, in the experiment with K-562 leukemia and with SF-295 CNS was > 100 µM in each case.
Take `CC[n+]1c(-c2ccccc2)c2cc(N)ccc2c2ccc(N)cc21`: the GI50 with IGROV1 ovarian is 0.522 µM; in the experiment with HCT-116 colon, 1.71 µM; in the experiment with NCI-H23 lung, 0.515 µM; with A498 renal, 5.18 µM and 4.76 µM and 14.7 µM; in the experiment on OVCAR-8 ovarian, 0.695 µM and 1.37 µM and 2.94 µM; in the experiment on SF-539 CNS, 0.763 µM. Besides, the GI50 in the experiment with SW-620 colon was 1.05 µM; in the experiment on OVCAR-4 ovarian, 0.705 µM; with K-562 leukemia it was 1.75 µM; with SF-295 CNS, 1.51 µM. In addition, the TGI in the experiment on IGROV1 ovarian is 10.2 µM and 12.9 µM; with HCT-116 colon, 12.7 µM and 25.3 µM and 26.6 µM; with NCI-H23 lung, 3.65 µM and 5.2 µM and 3.61 µM; in the experiment on A498 renal, 40.8 µM and 52.5 µM and 66.2 µM; in the experiment with OVCAR-8 ovarian, 12.2 µM and 16.2 µM and 33.2 µM; in the experiment on SF-539 CNS, 4.4 µM and 6.43 µM and 6.19 µM. Moreover, the TGI was 16.2 µM and 33.3 µM and 22.2 µM in the experiment on SW-620 colon; 3.99 µM and 29.5 µM and 36 µM with OVCAR-4 ovarian; 30.1 µM and 50.5 µM and 35.3 µM in the experiment with K-562 leukemia; 13.7 µM and 15.5 µM and 29 µM in the experiment with SF-295 CNS.
Take `O=C1C2C(C(=O)N1Cc1ccccc1)N(Cc1ccccc1)C(=O)N2Cc1ccccc1` (centres undefined): the TGI with IGROV1 ovarian, in the experiment with HCT-116 colon, with NCI-H23 lung, in the experiment on A498 renal, with OVCAR-8 ovarian and with SF-539 CNS was > 100 µM each time. For the same compound, the TGI in the experiment on SW-620 colon, in the experiment with OVCAR-4 ovarian, with K-562 leukemia and in the experiment with SF-295 CNS was > 100 µM throughout.
In the case of `CNC(=O)OCc1nc(SSc2nc(COC(=O)NC)c(COC(=O)NC)n2C)n(C)c1COC(=O)NC`, the TGI in the experiment with IGROV1 ovarian, in the experiment on HCT-116 colon, in the experiment with NCI-H23 lung, with A498 renal, with OVCAR-8 ovarian and in the experiment on SF-539 CNS was > 100 µM throughout. Further, the TGI in the experiment on SW-620 colon, with OVCAR-4 ovarian, in the experiment with K-562 leukemia and with SF-295 CNS was > 100 µM in each case.
Turning to `N=C(N)n1cc(/C=N/N=C(N)N)cn1`, the TGI with IGROV1 ovarian, in the experiment with HCT-116 colon, in the experiment on NCI-H23 lung, in the experiment with A498 renal, with OVCAR-8 ovarian and with SF-539 CNS was > 100 µM throughout. Also, the TGI with SW-620 colon, in the experiment with OVCAR-4 ovarian, with K-562 leukemia and with SF-295 CNS was > 100 µM throughout.
In the case of `C/C(=N\NC(=S)N1CCC1)c1ccccn1`, the GI50 with IGROV1 ovarian is 0.00798 µM; with HCT-116 colon, 0.00278 µM; in the experiment with NCI-H23 lung, 0.00622 µM; in the experiment with OVCAR-8 ovarian, 0.00715 µM; in the experiment on SF-539 CNS, 0.0629 µM; with SW-620 colon, 0.0367 µM. The GI50 was 0.00312 µM in the experiment with OVCAR-4 ovarian, 0.00393 µM in the experiment with K-562 leukemia and 0.0285 µM in the experiment with SF-295 CNS. Further, the TGI amounted to 22.7 µM with IGROV1 ovarian; 52.2 µM in the experiment with HCT-116 colon; 39.7 µM in the experiment on NCI-H23 lung; 10.6 µM in the experiment on A498 renal; 12 µM in the experiment with OVCAR-8 ovarian; 5.31 µM with SF-539 CNS. Moreover, the TGI was > 100 µM in the experiment with SW-620 colon, > 56.7 µM in the experiment with OVCAR-4 ovarian, > 100 µM in the experiment with K-562 leukemia and 49.2 µM with SF-295 CNS.
For `O=C(O)c1ccccc1C(=O)c1ccco1`, the TGI in the experiment with IGROV1 ovarian, in the experiment on HCT-116 colon, with NCI-H23 lung, in the experiment with A498 renal, with OVCAR-8 ovarian and in the experiment on SF-539 CNS was > 100 µM throughout. Besides, the TGI in the experiment with SW-620 colon, in the experiment on OVCAR-4 ovarian, in the experiment with K-562 leukemia and in the experiment on SF-295 CNS was > 100 µM throughout.
